Test results: ChEMBL document CHEMBL1667775, “Design, synthesis and biological evaluation of new thalidomide analogues as TNF-α and IL-6 production inhibitors” (Bioorg Med Chem Lett, 2011)
The source made the active and inactive calls. No cut-off for these calls is given here.

Columns and labels:
PBMC [1] = assay: Cytotoxicity against human PBMC at 1 to 100 uM after 48 hrs by flow cytometry; assay type: cell-based
PBMC [2] = assay: Cytotoxicity against human PBMC at 1 to 100 uM after 48 hrs by propidium iodure labeling; assay type: cell-based
PBMC [3] = assay: Antiinflammatory activity in human PBMC assessed as inhibition of LPS-induced TNFalpha production after 48 hrs by ELISA; assay type: functional, cell-based
PBMC [4] = assay: Antiinflammatory activity in human PBMC assessed as inhibition of LPS-induced IL-6 production at 1 to 100 uM after 48 hrs by ELISA; assay type: functional, cell-based
PBMC [5] = assay: Antiinflammatory activity in human PBMC assessed as inhibition of LPS-induced TNFalpha production at 1 to 100 uM after 48 hrs by ELISA; assay type: functional, cell-based
PBMC [6] = assay: Antiinflammatory activity in human PBMC assessed as inhibition of LPS-induced TNFalpha production at 1 to 10 uM after 48 hrs by ELISA; assay type: functional, cell-based
PBMC [7] = assay: Antiinflammatory activity in human PBMC assessed as inhibition of LPS-induced TNFalpha production at 100 uM after 48 hrs by ELISA; assay type: functional, cell-based
PBMC [8] = assay: Antiinflammatory activity in human PBMC assessed as inhibition of LPS-induced IL-6 production at 1 to 10 uM after 48 hrs by ELISA; assay type: functional, cell-based
PBMC [9] = assay: Antiinflammatory activity in human PBMC assessed as inhibition of LPS-induced IL-6 production at 100 uM after 48 hrs by ELISA; assay type: functional, cell-based

O=C1C2Cc3ccccc3N2C(=O)N1S(=O)(=O)c1ccc2ccccc2c1 (centres undefined)
Activity (PBMC [1]): Non-toxic | Activity (PBMC [2]): Non-toxic

O=C(Nc1ccccc1)c1cc2cccnc2n1S(=O)(=O)c1ccccc1
Activity (PBMC [1]): Non-toxic | Activity (PBMC [2]): Non-toxic | Activity (PBMC [3]): Dose-dependent effect | Activity (PBMC [4]): Active

Cc1ccc(S(=O)(=O)N2C(=O)c3cc4ccccc4n3C2=O)cc1
Activity (PBMC [1]): Non-toxic | Activity (PBMC [2]): Non-toxic

O=C(Nc1cccc(S(=O)(=O)N2CCOCC2)c1)c1cc2cccnc2[nH]1
Activity (PBMC [1]): Non-toxic | Activity (PBMC [2]): Non-toxic | Activity (PBMC [4]): inactive | Activity (PBMC [5]): inactive

CCOC(=O)c1ccc(S(=O)(=O)CN2C(=O)C3Cc4ccccc4CN3S2(=O)=O)cc1 (centres undefined)
Activity (PBMC [1]): Non-toxic | Activity (PBMC [6]): inactive | Activity (PBMC [2]): Non-toxic | Activity (PBMC [7]): Active | Activity (PBMC [8]): inactive | Activity (PBMC [9]): Active

O=C1c2cc3cccnc3n2C(=O)N1S(=O)(=O)c1ccccc1
Activity (PBMC [1]): Non-toxic | Activity (PBMC [2]): Non-toxic | Activity (PBMC [4]): inactive | Activity (PBMC [5]): Active

O=C(Nc1cccc(S(=O)(=O)N2CCSCC2)c1)c1cc2cccnc2[nH]1
Activity (PBMC [1]): Non-toxic | Activity (PBMC [2]): Non-toxic | Activity (PBMC [4]): inactive | Activity (PBMC [5]): inactive

O=C(Nc1ccccc1)c1cc2cccnc2[nH]1
Activity (PBMC [1]): Non-toxic | Activity (PBMC [2]): Non-toxic | Activity (PBMC [4]): inactive | Activity (PBMC [5]): inactive

O=C(Nc1cccc(S(=O)(=O)N2CCN(c3ccccc3)CC2)c1)c1cc2cccnc2[nH]1
Activity (PBMC [1]): Non-toxic | Activity (PBMC [2]): Non-toxic | Activity (PBMC [4]): inactive | Activity (PBMC [5]): inactive
